Laboratory results as given in paper PMC5617480 (Oncotarget, 2017).
Like-named read-outs stand apart in the source and are kept apart here.

Legend:
[1] = tested on: BEL-7404 cells; design: method as in earlier work; conditions: BEL-7404, 48 h; ref [1]; cited from earlier work
[2] = tested on: HTG21 (DNA, G4) GGGTTAGGGTTAGGGTTAGGG; assay: fluorescent intercalator displacement (FID); conditions: thiazole orange displaced
[3] = tested on: Pu22; design: method as in earlier work; conditions: ref [1], cited from earlier work; for ctDNADC50/Pu22DC50: FID selectivity ratio; for Pu22DC50: FID
[4] = tested on: Pu27 (DNA, G4) TGGGGAGGGTGGGGAGGGTGGGGAAGG; assay: fluorescent intercalator displacement (FID); conditions: thiazole orange displaced
[5] = tested on: Pu27 (c-myc) G4; design: method as in earlier work; conditions: ref [1], cited from earlier work; for ctDNADC50/Pu27DC50: FID selectivity ratio; for Pu27DC50: FID
[6] = tested on: FPu18T (DNA, G4) AGGGTGGGGAGGGTGGGG; assay: FRET melting; conditions: 100 mM K+; 10 mM Tris-HCl, pH 7.35; 2.0 μM compound, 1.0 μM DNA
[7] = tested on: HL-7702 normal cells; conditions: ref [1], cited from earlier work; for selectivity index factor, IC50 (normal HL-7702 cells)/IC50 (BEL-7404 tumor cells): 48 h; for IC50: HL-7702, 48 h
[8] = tested on: HeLa cells; design: method as in earlier work; conditions: 48 h, ref [1]; cited from earlier work
[9] = tested on: F32T+H20M (DNA, duplex) CCGCATCTCTACATTCAAGAACTGGCATGCGG/GCCAGTTCTTGAATGTAGAG; assay: FRET melting; conditions: 100 mM K+; 10 mM Tris-HCl, pH 7.35; 2.0 μM compound, 1.0 μM DNA
[10] = tested on: A549 cells; design: method as in earlier work; conditions: A549, 48 h; ref [1]; cited from earlier work
[11] = tested on: HTG21 (human telomeric) G4; design: method as in earlier work; conditions: ref [1], cited from earlier work; for ctDNADC50/HTG21DC50: FID selectivity ratio; for HTG21DC50: FID
[12] = tested on: HTG21 / G4-HTG21 human telomeric DNA; assay: CD spectroscopy; assay type: binding; design: key to Extent of change at 290―295 nm (%): “—”represents no obvious changes in the peaks; conditions: DNA 10 μM, compound 20 μM
Experimental: (§1) We asked whether chiral platinum(II) complexes 4–6 have the ability to bind to G-quadruplex DNA. To address this, FRET assays, CD spectroscopy, G4-FID assays, and fluorescence titration analysis were performed. […] For G4-HTG21, the ^G4DC50 values of complexes 4–6 were 1.23, 1.26 and 0.99 μM, respectively; while, for G4-Pu27, the ^G4DC50 values were 1.01, 0.89, and 0.82 μM, respectively. In addition, the ^ctDNADC50/^G4DC50 ratio of the HTG21 and Pu27 G4s treated with complexes 4–6 was in the range of 50.54-90.65 and 71.56-110.67 folds, respectively. To further evaluate the binding ability of complexes 4–6 to Pu27 and HTG21G4s, CD spectroscopy and fluorescence titration analysis were performed. […] The quenching ability of complexes 4–6 to HTG21 and Pu27 G4 DNA fluorescence can be quantitatively estimated by their respective quenching constant (Kq), which was derived from the Stern-Volmer quenching equation. […] Finally, the selective binding of complexes 4–6 towards G4 DNA was analyzed by FRET-melting assays. […] In contrast, the ΔTm value for the F32T+H20M duplex DNA in the presence of complexes 4–6 was 1.18, 1.34, and 0.78 °C under the same conditions (Figure 4A). Altogether, our data indicated complexes 4–6, especially complex 6, is the best binder to G4 DNA, which caused DNA complex displaying the highest thermodynamic stability. […]
Supplementary Figure 21: CD spectra of Human Telomeric DNA (10 μM) in the absence of K+ (10 mM pH 7.35 Tris-
HCl) upon addition of compounds (20 μM). […]
Supplementary Figure 22: CD spectra of Human Telomeric G-quadruplex DNA (10 μM) in the presence of K + (TBS
buffer, containing 1% DMSO, 100 mM KCl, and 10 mM pH 7.35 Tris-HCl) upon addition of compounds (20 μM). […]

[13] = tested on: Pu22; assay: FID assay; assay type: binding; conditions: for Pu22DC50: FID; for ctDNADC50/Pu22DC50: FID selectivity ratio
[14] = tested on: c-kit-1; assay: FID assay; assay type: binding; conditions: for c-kit-1DC50: FID; for ctDNADC50/c-kit-1DC50: FID selectivity ratio
[15] = tested on: HTG21 G4; assay: Fluorescence titration (Stern-Volmer quenching); assay type: binding, human; conditions: HTG21 G4-DNA, compound 20 μM, 100 mM K+
Experimental: as §1
Supplementary Figure 25: Fluorescence emission spectra of compounds (20 μM) in 100 mM K+ solution in the absence and
presence of human telomeric G-quadruplex DNA with 4 (A), 5 (B) and 6 (C), respectively.

[16] = tested on: c-kit-2; assay: FID assay; assay type: binding; conditions: for c-kit-2DC50: FID; for ctDNADC50/c-kit-2DC50: FID selectivity ratio
[17] = Solubility in water by UV-vis spectroscopy; assay type: physicochemical; conditions: H2O
Experimental: We next determined the solubility and stability of complexes 4, 5, and 6 in H2O and TBS buffer by UV-vis spectroscopy. […] TBS buffer (1% DMSO, 100 mM KCl, and 10 mM pH 7.35 Tris-HCl) was used to mimic normal physiological conditions.

[18] = G4-HTG21 (presence of K+), given with ↓
[19] = HTG21 (absence of K+), given with ↓

G4DC50 [2] [µM] | G4DC50 [4] [µM] | ΔTm [6] [°C] | ΔTm [9] [°C] | Molecule | IC50 [1] [µM] | ctDNADC50/Pu22DC50 [3] | Pu22DC50 [3] [µM] | ctDNADC50/Pu27DC50 [5] | Pu27DC50 [5] [µM] | selectivity index factor, IC50 (normal HL-7702 cells)/IC50 (BEL-7404 tumor cells) [7] | IC50 [7] [µM] | IC50 [8] [µM] | IC50 [10] [µM] | ctDNADC50/HTG21DC50 [11] | HTG21DC50 [11] [µM] | Extent of change at 250―265 nm (%) [12, 18] [%] | Extent of change at 290―295 nm (%) [12, 18] [%] | Extent of change at 290―295 nm (%) ([12]; HTG21 (absence of K+)) | Extent of change at 250―265 nm (%) [12, 19] [%] | Pu22DC50 [13] [µM] | other results
1.23 | 1.01 | 19.15 | 1.18 | O=C(NCC(O)CO)c1cnc2c3c(cccc13)-c1ccccc1C2=O.[Cl-].[Cl-].[Pt+2] (racemic) [ligand 1, R/S-(±)-FOA] | 17.2 ± 0.1 | 1.88 | 33.97 | 39.24 | 1.63 | > 5.8 | > 100 | 25.7 ± 2.2 | 20.2 ± 0.5 | 25.79 | 2.48 |  |  |  |  |  | 
1.26 | 0.89 | 16.66 | 1.34 | O=C(NC[C@@H](O)CO)c1cnc2c3c(cccc13)-c1ccccc1C2=O.[Cl-].[Cl-].[Pt+2] [ligand 2, R-(+)-FOA] | 20.5 ± 0.1 | 0.69 | 57.62 | 22.59 | 1.77 | > 4.9 | > 100 | 28.5 ± 0.3 | 24.1 ± 0.4 | 17.78 | 2.25 |  |  |  |  |  | 
0.99 | 0.82 | 23.01 | 0.78 | O=C(NC[C@H](O)CO)c1cnc2c3c(cccc13)-c1ccccc1C2=O.[Cl-].[Cl-].[Pt+2] [ligand 3, S-(–)-FOA] | 15.4 ± 0.2 | 3.49 | 25.75 | 62.81 | 1.43 | 5.3 | 81.4 ± 2.7 | 22.9 ± 0.7 | 20.4 ± 0.3 | 48.55 | 1.85 |  |  |  |  |  | 

Continued, molecule first:

Molecule | G4DC50 [2] [µM] | G4DC50 [4] [µM] | ΔTm [6] [°C] | ΔTm [9] [°C] | IC50 [1] [µM] | ctDNADC50/Pu22DC50 [3] | Pu22DC50 [3] [µM] | ctDNADC50/Pu27DC50 [5] | Pu27DC50 [5] [µM] | selectivity index factor, IC50 (normal HL-7702 cells)/IC50 (BEL-7404 tumor cells) [7] | IC50 [7] [µM] | IC50 [8] [µM] | IC50 [10] [µM] | ctDNADC50/HTG21DC50 [11] | HTG21DC50 [11] [µM] | Extent of change at 250―265 nm (%) [12, 18] [%] | Extent of change at 290―295 nm (%) [12, 18] [%] | Extent of change at 290―295 nm (%) ([12]; HTG21 (absence of K+)) | Extent of change at 250―265 nm (%) [12, 19] [%] | Pu22DC50 [13] [µM] | other results
cis-[PtCl2(R-(+)-FOA)] [complex 5] |  |  |  |  |  |  |  |  |  |  |  |  |  |  |  | 52.31 | 9.76 | — | 62.38 | 1.74 | ctDNADC50/Pu22DC50 [13]: 36.60; c-kit-1DC50 [14]: 23.89 µM; ctDNADC50/c-kit-1DC50 [14]: 2.67; Extent of quenching (%) [15]: 27.21%; Kq (quenching constant, Stern-Volmer) [15]: 4.36×10^4 L·mol–1; c-kit-2DC50 [16]: 3.08 µM; ctDNADC50/c-kit-2DC50 [16]: 20.68; solubility in water [17]: 1000 µg/mL
cis-[PtCl2(S-(–)-FOA)] [complex 6] |  |  |  |  |  |  |  |  |  |  |  |  |  |  |  | 56.31 | 19.43 | — | 73.98 | 1.14 | ctDNADC50/Pu22DC50 [13]: 79.59; c-kit-1DC50 [14]: 1.75 µM; ctDNADC50/c-kit-1DC50 [14]: 51.85; Extent of quenching (%) [15]: 28.42%; Kq (quenching constant, Stern-Volmer) [15]: 4.65×10^4 L·mol–1; c-kit-2DC50 [16]: 4.78 µM; ctDNADC50/c-kit-2DC50 [16]: 18.98; solubility in water [17]: 2000 µg/mL
cis-[PtCl2(R/S-(±)-FOA)] [complex 4] |  |  |  |  |  |  |  |  |  |  |  |  |  |  |  | 50.08 | 16.44 | — | 73.35 | 7.41 | ctDNADC50/Pu22DC50 [13]: 10.24; c-kit-1DC50 [14]: 1.45 µM; ctDNADC50/c-kit-1DC50 [14]: 52.32; Extent of quenching (%) [15]: 27.34%; Kq (quenching constant, Stern-Volmer) [15]: 4.60×10^4 L·mol–1; c-kit-2DC50 [16]: 2.48 µM; ctDNADC50/c-kit-2DC50 [16]: 30.59; solubility in water [17]: 680 µg/mL
